According to patent publication US12478601B2, “Dietary product devoid of at least two non essential amino acids” (CANCER RESEARCH TECHNOLOGY LIMITED, priority 2016, dated 2025):

System: MDA-MB-231 cells
Experiment: Cysteine starvation of MDA-MB-231 cells after AMD1 inhibitor pre-treatment
Assay type: cell-based
Details: 20 uM for 16 h before medium lacking cysteine
Description: FIG. 40. […] MDA-MB-231 cells were initially seeded in complete (DMEM) medium in 24-well plates. After 24 h, cells were treated with AMD1 inhibitor Sardomozide (20 uM) for 16 h or left untreated (Ctr). Cells were then washed with PBS and given medium lacking cysteine but containing all 19 other amino acids. Images (panel a) were captured using a light microscope, and cell counts (panel b) were performed using a CASY TT cell counter. Data are average of three wells. Error bars=STDEV.
Cells (4×10^4-1×10^5) were seeded in complete RPMI or DMEM medium in 24-well plates and allowed to adhere overnight. Cells were then washed with PBS and received assay medium supplemented with the stated amino acids/metabolites/drugs. Assay medium was formulated based on RPMI-1640 medium but lacking amino acids, which were added individually depending on the assay. Assay medium was also supplemented with additional vitamin B6 (20 uM), a co-factor for cysteine synthesis. Cells were counted (using Casy TT cell counter, Innovatis, Roche Applied Science) at the stated time-points, using a “time=0” plate to calculate relative cell number from time of medium change.

**Q.** `N=C(N)N/N=C1\CCc2c(C(=N)N)cccc21` [Sardomozide] was tested. Which “protection from cell death in cysteine starvation” value did it give?
**A.** The value was “protects cells from acute sensitivity (i.e. cell death) to cysteine starvation”.
